Values of other authors in US20260001962A1, “COMBINATION THERAPY METHODS WITH T-CELL ENGAGING MOLECULES FOR TREATMENT OF PROSTATE CANCER” (AMGEN INC., priority 2022, published 2026).
“Also recorded” adds a separate entry of the source.

How the values were obtained:
prostate cancer cells [1] = settings: reported in literature
prostate cancer cells [2] = settings: in vitro; Deegen et al. 2021

CO[C@H]1C(=O)[C@]2(C)[C@@H](OC)C[C@H]3OC[C@@]3(OC(C)=O)[C@H]2[C@H](OC(=O)c2ccccc2)[C@]2(O)C[C@H](OC(=O)[C@H](O)[C@@H](NC(=O)OC(C)(C)C)c3ccccc3)C(C)=C1C2(C)C [Cabazitaxel]
increase in median survival compared with mitoxantrone (mCRPC patients; mCRPC): 2.4 months

[223Ra] [Radium-223]
survival (mCRPC patients; patients with bone metastases, combined with best standard care, vs 11.3): 14.9 months

CNC(=O)c1ccc(N2C(=S)N(c3ccc(C#N)c(C(F)(F)F)c3)C(=O)C2(C)C)cc1F [enzalutamide]
OS (mCRPC patients; first line mCRPC setting, vs 31.3): 35.3 months | expression of PSMA on prostate cancer cells (prostate cancer cells [1]): rapidly upregulate expression of PSMA | cytotoxicity of prostate cancer cells induced by PSMA-targeted T-cell engager (AMG 160) (prostate cancer cells [2]): enhances cytotoxicity of prostate cancer cells; also recorded: enhance AMG 160-mediated cytotoxicity of prostate cancer cells
